From US11578042B2, “3,5-diamino-6-chloro-N-(N-(4-(4-(2-(hexyl(2,3,4,5,6-pentahydroxyhexyl)amino)ethoxy)phenyl)butyl)carbamimidoyl)pyrazine-2-carboxamide” (Parion Sciences, Inc., priority 2011, dated 2023) come the findings set out here.

Several values for one entry are separate records, joined by “and”; a condition that tells them apart may be missing. Equal entries are not always repeated. Entries after “also recorded” stand apart in the source; their conditions may differ.

Series [1] has as its system CBE cells. In words: Airway hydration / surface liquid retention (in vitro CBE model). Type of series: cell-based, canine. As to conditions: 10 μM, 50 μL applied apically, 8 hours. How it is done:
Primary CBE cells are plated onto collagen-coated, porous membranes maintained at an air-liquid interface to assess maintenance of surface liquid volume over time. At the start of the experiment, each 12 mm snapwell insert was removed from the plate containing air-liquid interface culture media, blotted dry, weighed, and 50 μL of vehicle (0.1% DMSO), or ENaC blocker (10 μM in 0.1% DMSO) applied to the apical surface and the mass was recorded. The inserts were immediately returned to a transwell plate (500 μL, Krebs Ringer Bicarbonate (KRB), pH 7.4 in lower chamber) and placed in a 37° C., 5% CO2 incubator. To reduce artifact due to an apical carbohydrate osmotic gradient upon water loss, glucose was not included in the apical buffer. […] The mass of surface liquid was converted to volume in μL. Data are reported as % initial volume (100%=50 μL).
The duration of sodium transport inhibition was determined indirectly by measuring the buffer retained after a 50 μl volume of experimental buffer was added to the apical surface of CBE cells.

Series [2] concerns mucociliary clearance (MCC). Description: Mucociliary clearance (MCC) studies in sheep. The series is classed as in vivo. As to conditions: for AUC / Initial Slope (4.0-4.5 h): Table 10, 4 mL, 4 h post-dose. Here is the method: Assay 2. Mucociliary Clearance (MCC) Studies in Sheep
The animal model that has been used most often to measure changes in MCC is the sheep model.
In these studies, adult sheep were restrained and nasally intubated with an endotracheal tube. Aerosolized test articles were administered over 10^−15 minutes to sheep. Radiolabeled ^99mTc-sulfur colloid (TSC, 3.1 mg/mL; containing approximately 20 mCi) was then administered at a specified time four or eight hours after test article. The radiolabeled aerosol was administered through the endotracheal tube for about 5 minutes. The sheep were then extubated, and total radioactive counts in the lung were measured every 5 minutes for a 1-hour observation period. The rate of radiolabel clearance from the lung is representative of the MCC rate in the animal. The advantage of this system is that it closely simulates the human lung environment. The model also allows for the collection of simultaneous PK/PD information through plasma and urine sampling over the test period. There are also several techniques to measure the drug concentrations on the airway surface during the MCC measurements. These include the collection of exhaled breath condensates or a filter paper method to obtain ASL via bronchoscopy.
Test solutions were aerosolized using a Raindrop nebulizer at a flowrate of eight liters per minute and connected to a dosimetry system consisting of a solenoid valve and a source of compressed air (20 psi). […] Using a Raindrop nebulizer, radiolabeled TSC was administered over approximately 3 minutes either 4 or 8 hours after drug treatment to evaluate efficacy/durability. Radioactive counts were measured in a central region in the right lung at 5 min intervals for one hour with a gamma camera.

For series [3] the following is noted: sheep, in vivo, iv.
Series [4] is described as follows: Plasma potassium levels in sheep of the MCC study. As to conditions: at effective / approximate ED50 doses.
Protocol: In these studies, adult sheep were restrained and nasally intubated with an endotracheal tube. Aerosolized test articles were administered over 10^−15 minutes to sheep. Radiolabeled ^99mTc-sulfur colloid (TSC, 3.1 mg/mL; containing approximately 20 mCi) was then administered at a specified time four or eight hours after test article. The radiolabeled aerosol was administered through the endotracheal tube for about 5 minutes. The sheep were then extubated, and total radioactive counts in the lung were measured every 5 minutes for a 1-hour observation period. The rate of radiolabel clearance from the lung is representative of the MCC rate in the animal. […] The model also allows for the collection of simultaneous PK/PD information through plasma and urine sampling over the test period.
Series [5] is described as follows: Human plasma protein binding. The series is classed as in vitro ADME.
Series [6] has as its system HBE cells. In words: Airway surface liquid drug clearance and metabolism by human airway epithelium. As to conditions: 25 μL of 25 μM on apical surface of HBE, 37° C.
Description: Assay 3. d. Airway Surface Liquid Drug (ASL) Clearance and Metabolism by Human Airway Epithelium
A short description of series [7]: Human plasma metabolism. Type of series: in vitro ADME. To be noted: read-out: Human Plasma Metabolism (t½).
Series [8] can be described thus: Log D. The series is classed as physicochemical.
The mark [9] stands for this setting: sheep MCC model, given as concentration.

On to `N=C(N)NC(=O)c1nc(Cl)c(N)nc1N` [Amiloride, amiloride], for which, in series [1], the “surface liquid retained (% initial volume)” value amounted to 25±19.2%.

Usually ED50 stands for the dose that gives a 50% effect, or the effect in half of the subjects. With `N=C(NCCCCc1ccc(OCCN(C[C@H](O)[C@@H](O)[C@H](O)[C@H](O)CO)C[C@H](O)[C@@H](O)[C@H](O)[C@H](O)CO)cc1)NC(=O)c1nc(Cl)c(N)nc1N` [Comparative Example 1], in series [2] (Ovis aries, sheep MCC at 8 hrs, read-out: Approximate ED50), the median effective dose (ED50) was approximately 0.24 µmol/kg. Besides, in series [2] (Table 7, 3000 μM, 8 hrs), the “AUC, % of maximal effect” value is recorded as “(47%)”; the “AUC, change from vehicle” value is listed as 2.9 % CI*h; the “Max Clearance, % of maximal effect” value is listed as “(31%)”; the “Max Clearance, change from vehicle” value amounted to 4%. In series [2] (Table 7, 3000 μM, 8 hrs), the “Slope (8-8.5 h), % of maximal effect” value was “(60%)” and the “Slope (8-8.5 h), change from vehicle” value stood at 6.1. Moreover, the “Approximate ED50” value in series [2] (sheep MCC at 8 hrs, listed as Comp. Ex. 1) is on record as approximately 240 nmol/kg. In series [2] (setting [9]), the “ED50 (AUC=47%)” value is “approximately 3000 μM” and the “approximate ED50 dose” value was approximately 3000 µM. For the same compound, the “dose recovered in urine” value in series [3] worked out at 43%. Further, the “effect on plasma potassium” value in series [4] is “causes a rise in plasma potassium”.

One may read the fraction unbound as free concentration divided by total concentration. Low readings indicate extensive binding, high ones weak binding. Usually logD stands for lipophilicity at a set pH, counting ionised and neutral species. Lower therefore signals lower lipophilicity. `N=C(NCCCCc1ccc(OC[C@H](N)C(N)=O)cc1)NC(=O)c1nc(Cl)c(N)nc1N` [Comparative Example 4, (S)-3,5-diamino-6-chloro-N-(N-(4-(4-(2,3-diamino-3-oxopropoxy)phenyl)butyl)carbamimidoyl)pyrazine-2-carboxamide] gave a fraction unbound in series [5] of 0.24. In addition, in series [2] (11.2 μg/kg), the AUC came out at 6.9 ± 1.0 % CI × h and the “Initial Slope (4.0-4.5 h)” value came out at 14.5 ± 1.3. Further, in series [2] (112 μg/kg), the AUC was 14.1 ± 2.2 % CI × h and the “Initial Slope (4.0-4.5 h)” value was 32.2 ± 7.3. The “approximate ED50 dose” value in series [2] (setting [9]) is approximately 3000 µM. Also, in series [6], the “% of Apical Mass as Metabolites (2 h)” value was 83% and 83.0 ± 3.5%; the “% on Basolateral Side as Metabolites (2 h)” value is 94.7 ± 1.0%. In series [7], the half-life worked out at 37 min. Further, the logD in series [8] is 0.64. For the same compound, the “effect on plasma potassium” value in series [4] is “has elevations of plasma K; also recorded: significant increase in plasma potassium levels”.
